# Earlier results in patent US20090318371A1 (priority 2006, published 2009).
# Experiments:
# [1] = topical administration
# [2] = system: human polymorphonuclear leukocyte chemotactic and chemokinetic responses; details: in vivo and in vitro
# [3] = clinical studies
# [4] = Phase III clinical studies
# [5] = topical application to mice for 21 months
# [6] = clinical phase I
# [7] = during the following 10 hours of topical administration
# [8] = Ames, chromosomal aberration and micronuclei
# [9] = multiple topical administrations, equivalent to 10 mg/ml in water and isopropyl alcohol solution
# [10] = Ames test
smiles,measurement,setting,value
CCC[C@@H]1C[C@@H](C(=O)N[C@@H]([C@H]2O[C@H](SC)[C@H](O)[C@@H](O)[C@H]2O)[C@H](C)Cl)N(C)C1 [Clindamycin],Binding to plasma proteins,in vivo,Ninety percent or more
same,Share of administered clindamycin excreted intact in urine,urine,10%
COc1ccc(-c2ccc3cc(C(=O)O)ccc3c2)cc1C12CC3CC(CC(C3)C1)C2 [Adapalene],Presence of Adapalene compared to Tretinoin on the dermis,[1]; dermis,−37%
same,Presence of Adapalene compared to Tretinoin on the epidermis,[1]; epidermis,+51%
same,Presence of Adapalene compared to Tretinoin in receptor fluid,[1]; receptor fluid,−71%
same,Anti-inflammatory activity compared to other topical retinoids,[2],superior to other topical retinoids
same,Plasma levels,[3],no significant plasma levels were detected
CCOC(=O)c1ccc(C#Cc2ccc3c(c2)C(C)(C)CCS3)nc1 [Tazarotene],Adverse effects reported,[4],"burning sensation, skin scaling and dryness"
same,Carcinogenic effects,[5],non-carcinogenic effects
same,"Sensitization, phototoxicity or photoallergicity",[6],"does not cause sensitization, phototoxicity or photoallergicity"
same,"Absorption, share of the dose absorbed",[7],Less than 6.0%
same,"Mutagenicity, clastogenic or chromosomal effects",[8],not mutagenic and has no clastogenic or chromosomal effects
"CCC[C@@H]1C[C@@H](C(=O)N[C@@H]([C@H]2O[C@H](SC)[C@H](OP(=O)(O)O)[C@@H](O)[C@H]2O)[C@H](C)Cl)N(C)C1 [clindamycin phosphate, Clindamycin phosphate]",Share of the dosage recovered in urine as clindamycin,[9],less than 0.2%
O=C(OOC(=O)c1ccccc1)c1ccccc1 [Benzoyl peroxide],Activity against Propionibacterium acnes,Propionibacterium acnes,effective against Propionibacterium acnes
same,Mutagenicity,[10],not mutagenic
